“Also recorded” adds a separate entry of the source. Where no end group is shown, it is not given here. [ ]: non-standard residue; d: D form.

Three substances from patent publication US8822409B2, “Compositions and uses thereof for the treatment of acute respiratory distress syndrome (ARDS) and clinical disorders associated with therewith” (Phylogica Limited, priority 2007, dated 2014) can be followed below.

For assay [1], the system named is C57/BL6 mice given intranasal LPS (animal model of ARDS and sepsis). Nature of the assay: Neutrophil infiltration in BAL after intranasal peptide, LPS-induced mouse model of ARDS and sepsis (FIG. 1). Type of assay: in vivo. The following applies: repeated dose co-administered with LPS (10 μg/mouse), BAL 6 hours later, n=5. The method, then: FIG. 1 is a graphical representation showing the percentage of neutrophils (y-axis) in bronchoalveolar lavage (BAL) in 8-week to 12-week old C57/BL6 mice receiving various treatments indicated by numbers on the x-axis as follows:
Columns 1-4 (open bars): Animals (n=5 per group) received either no LPS (column 1) or a dose of LPS intranasally (10 μg/mouse) and BAL was performed 1 hour (column 2), 4 hours (column 3) or 6 hours (column 4) later. No peptide was administered to these animals.
Columns 5-7 (filled bars): Animals (n=5 per group) received an intranasal dose of 10 mg/kg body weight of retroinverted peptide analog D-PYC36-TAT (SEQ ID NO: 106; column 5) or D-PYC35-TAT (SEQ ID NO: 104; column 6), or 5 mg/kg body weight of retroinverted peptide analog D-PYC38-TAT (SEQ ID NO: 108; column 7), by a repeated dose of the same peptide analog for each group co-administered intranasally with LPS (10 μg/mouse) and BAL was performed 6 hours later.
Column 8 (hatched bars): Animals (n=5) received an intranasal dose of 10 mg/kg body weight of a scrambled version of SEQ ID NO: 106 designated D-PYC36scrambled-TAT followed 1 hour later by a repeated dose of the same peptide analog co-administered intranasally with LPS (10 μg/mouse) and BAL was performed 6 hours later.
BAL was performed on the animals using 1 ml GKN/0.2% BSA. Cell counts were obtained to determine total cell numbers and differential counts were obtained on cytocentrifuge slide preparations to elucidate the percentage neutrophils in BAL.
8-12 week old C57/B16 mice were purchased from the Animal Resource Center, Murdoch University, Western Australia and used for all experiments. All experiments were approved by the necessary institutional animal ethics committees and were performed in accordance with the National Health and Medical Research Council (NHMRC) Australian Code of Practice for the Care and Use of Animals for Scientific Purposes. […]

Assay [2] relates to female C57/BL6 mice given intranasal LPS (animal model of ARDS and sepsis). In words: Neutrophil infiltration in BAL after intravenous peptide injection, LPS-induced mouse model of ARDS and sepsis (FIG. 2). It is filed as in vivo. The following applies: intravenous 10 mg/kg 20 min before intranasal LPS (40 μg/mouse), repeat injections 2 and 4 hours post-LPS, BAL 6 hours after LPS. On the procedure:
FIG. 2 is a graphical representation showing the percentage of neutrophils (y-axis) in bronchoalveolar lavage (BAL) in 8-week to 10-week old female C57/BL6 mice receiving various treatments indicated by numbers on the x-axis as follows:
Column 1 (naïve): Animals received no LPS and BAL was performed 6 hours later. No peptide was administered to these animals.
Column 2 (nil): Animals received an intranasal dose of E. coli LP (40 μg/mouse) and BAL was performed 6 hours later.
Column 3 (D36-TAT x1): Animals received a single intravenous injection of 10 mg/kg body weight of retroinverted peptide analog D-PYC36-TAT (SEQ ID NO: 106) followed 20 min later by an intranasal dose of LPS (40 μg/mouse). BAL was performed 6 hours after LPS administration.
Column 4 (D36-TATscr x1): Animals received a single intravenous injection of 10 mg/kg body weight of a peptide having a scrambled sequence relative to the retroinverted peptide analog D-PYC36-TAT (SEQ ID NO: 106) followed 20 min later by an intranasal dose of LPS (40 μg/mouse). BAL was performed 6 hours after LPS administration. […]

The mark [3] stands for this setting: intranasal 10 mg/kg body weight 1 hour before LPS.

With “SEQ ID NO: 104: retroinverted peptide analog of SEQ ID NO: 57 fused to the TAT 10-mer with a linking glycine; AP-1 signaling inhibitor ([dR][dE][dR][dK][dS][dS][dS][dE][dI]GG[dS][dR][dI][dS][dQ][dY][dA]G[dR][dR][dR][dQ][dR][dR][dK][dK][dR]G; also: retro-inverso)”, the “percentage of neutrophils in bronchoalveolar lavage (BAL)” value (“percentage of neutrophils” for short) in assay [1] (setting [3]) is on record as “significantly reduced; also recorded: significantly-reduced”.
Regarding “SEQ ID NO: 106: retroinverted peptide analog of SEQ ID NO: 59 fused to the TAT 10-mer with a linking glycine; AP-1 signaling inhibitor ([dP][dK][dI][dS][dQ][dY]G[dQ][dR][dR][dR]G[dQ][dL]GG[dR][dR][dR][dQ][dR][dR][dK][dK][dR]G)”, the “percentage of neutrophils” value in assay [2] and in assay [1] (setting [3]) was “significantly reduced; also recorded: significantly-reduced” throughout.
Take “SEQ ID NO: 108: retroinverted peptide analog of SEQ ID NO: 61 fused to the TAT 10-mer with a linking glycine; AP-1 signaling inhibitor ([dR][dH][dA][dP][dL][dA][dR]G[dS][dW][dR]G[dQ][dP][dQ][dQ]G[dP][dQ][dR][dR]G[dQ][dL]GG[dR][dR][dR][dQ][dR][dR][dK][dK][dR]G)”: in assay [1] (intranasal 5 mg/kg body weight 1 hour before LPS), the “percentage of neutrophils” value is “significantly reduced; also recorded: significantly-reduced”.
